Data reported in patent US6706663B2, “Herbicidal 3-heterocyclic substituted benzisothiazole and benzisoxazole compounds” (Wyeth, priority 2000, dated 2004).

How the values were obtained:
ORYSAT (Rice, Tebonnet) [1] = experiment: Postemergence herbicidal evaluation; assay type: in vivo, Oryza sativa, (L.) Tebonnet; conditions: for ORYSAT herbicidal rating: postemergence
Outline: (§1)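 Visual 0–9 injury scores versus control plants, covering stand, vigour, malformation, size, chlorosis and general appearance, taken four to five weeks post-spray and averaged over replicate tests. Plants were sprayed at roughly two weeks old and held on greenhouse benches.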

CYPIR (Cyperus iria) = experiment: Flooded paddy, postemergence weed control; assay type: in vivo; conditions: 0.1250 kg/ha into flood water; postemergence weeds; rated 3-4 weeks after treatment
Description: (§2) Results of herbicide evaluation are expressed on a rating scale (0-9). The scale is based upon a visual observation of plant stand, vigor, malformation, size, chlorosis and overall plant appearance as compared with a control.
(§3) Plastic containers containing weeds which are 3 to 5 cm tall and rice seedlings at the 1.5 to 2.5 leaf stage are flooded with water. The water is maintained at 1.5 to 3 cm above the soil surface for the duration of the experiment. Test compounds are applied as aqueous/acetone mixtures 50/50 v/v directly into the flood water to provide the equivalent of about 0.0320 to 0.2500 kg/ha of active ingredient. The treated containers are placed on greenhouse benches and cared for in accordance with conventional greenhouse procedures. Three to four weeks after treatment, the test is terminated and each container is examined and herbicidal effect rated according to the rating system provided in Example 87. The compounds evaluated are identified in Example 87 and plant species used are identified in Example 89.

[2] = test system: MOOVA (Monochoria vaginalis); experiment: Flooded paddy, postemergence weed control; assay type: in vivo, Presl.; conditions: postemergence weeds, rated 3-4 weeks after treatment
Description: as §2, §3

[3] = test system: ECHORC (Echinochloa oryzoides); experiment: Flooded paddy, postemergence weed control; assay type: in vivo, Echinochloa oryzoides (Ard.) Fritsch.; conditions: postemergence weeds, rated 3-4 weeks after treatment
Description: as §2, §3

[4] = test system: CYPSE (Cyperus serotinus); experiment: Flooded paddy, postemergence weed control; assay type: in vivo, Rottb.; conditions: postemergence weeds, rated 3-4 weeks after treatment
Description: as §2, §3

[5] = test system: MOOVA (Monochoria vaginalis); experiment: Flooded paddy, preemergence weed control; assay type: in vivo, Presl.; conditions: rated 3-4 weeks after treatment, 0-9 rating scale
Outline: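 Greenhouse paddy test, preemergence. Seeds planted in the top 0.5 cm of silt loam soil, which remained flooded at 1.5–3 cm depth. Scored 0-9 by visual comparison with control.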

ORYSAT (Rice, Tebonnet) [6] = experiment: Flooded paddy, post-transplant and postemergence rice tolerance; assay type: in vivo, Oryza sativa, (L.) Tebonnet; conditions: post-transplant rice, rated 3-4 weeks after treatment
Description: as §2, §3

SETVI (Setaria viridis) [7] = experiment: Postemergence herbicidal evaluation; assay type: in vivo, (L.) Beau; conditions: for SETVI herbicidal rating: postemergence
Outline: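 Seedlings about two weeks old were sprayed with compound in 50/50 acetone/water plus 0.5% TWEEN 20, at the equivalent of about 0.0040 to 1.000 kg/ha. Plants were kept in a greenhouse and visually rated 0-9 against a control four to five weeks after treatment. Repeat tests were averaged.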

[8] = test system: SAGPY (Sagittaria pygmaea); experiment: Flooded paddy, postemergence weed control; assay type: in vivo, L.; conditions: postemergence weeds, rated 3-4 weeks after treatment
Description: as §2, §3

[9] = test system: ECHCG (Echinochloa crus-galli); experiment: Preemergence herbicidal evaluation; assay type: in vivo, (L.) Beau; conditions: rated 4-5 weeks after treatment
Outline: (§4)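 Visual 0-9 rating versus untreated control, taken four to five weeks post-treatment, scoring stand, vigor, malformation, size, chlorosis and overall appearance. Compound applied as aqueous acetone spray to freshly seeded soil cups, then kept under standard greenhouse care.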

SETVI (Setaria viridis) [10] = experiment: Preemergence herbicidal evaluation; assay type: in vivo, (L.) Beau; conditions: rated 4-5 weeks after treatment
Outline: as §4

[11] = test system: TRZAWR (Wheat, Winter, cv Riband); experiment: Postemergence herbicidal evaluation; assay type: in vivo, Triticum aestivum; conditions: for TRZAWR herbicidal rating: postemergence
Outline: as §1

[12] = test system: ABUTH (Abutilon theophrasti); experiment: Preemergence herbicidal evaluation; assay type: in vivo, Medic.; conditions: rated 4-5 weeks after treatment
ORYSAT (Rice, Tebonnet) [13] = experiment: Flooded paddy, post-transplant rice tolerance; assay type: in vivo, Oryza sativa, (L.) Tebonnet; conditions: flooded paddy, post-transplant rice, rated 3-4 weeks after treatment, 0-9 rating scale
Outline: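 Visual 0–9 injury rating against a control, covering stand, vigor, malformation, size, chlorosis and overall appearance. Treatment was post-transplant onto flooded containers (water 1.5–3 cm deep, silt loam) holding two ten-day-old cv. Tebonnet seedlings, maintained on greenhouse benches.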

[14] = Rate 0.2500 kg/ha, preemergence

Cn1c(C(F)(F)F)cc(=O)n(-c2ccc3snc(-c4sccc4Cl)c3c2)c1=O [Compound 52, 3-[3-(3-chloro-2-thienyl)-1,2-benzisothiazol-5-yl]-1-methyl-6-(trifluoromethyl)uracil]
ORYSAT herbicidal rating (ORYSAT (Rice, Tebonnet) [1]; rate 0.0320 kg/ha): 3.0
ORYSAT herbicidal rating (ORYSAT (Rice, Tebonnet) [1]; rate 0.0620 kg/ha): 3.0
ORYSAT herbicidal rating (ORYSAT (Rice, Tebonnet) [1]; rate 0.1250 kg/ha): 4.0
herbicide rating (0-9) CYPIR (CYPIR (Cyperus iria)): 9.0
herbicide rating (0-9) MOOVA ([2]; 0.0320 kg/ha into flood water): 2.0
herbicide rating (0-9) MOOVA ([2]; 0.0620 kg/ha into flood water): 2.0
herbicide rating (0-9) MOOVA ([2]; 0.1250 kg/ha into flood water): 9.0
herbicide rating (0-9) ECHORC ([3]; 0.0320 kg/ha into flood water): 6.0
herbicide rating (0-9) ECHORC ([3]; 0.0620 kg/ha into flood water): 9.0
herbicide rating (0-9) ECHORC ([3]; 0.1250 kg/ha into flood water): 8.0
herbicide rating (0-9) CYPSE ([4]; 0.0620 kg/ha into flood water): 7.0
herbicide rating (0-9) CYPSE ([4]; 0.1250 kg/ha into flood water): 8.0
herbicidal rating, MOOVA ([5]; rate 0.0080 kg/ha): 9.0
herbicidal rating, MOOVA ([5]; rate 0.0320 kg/ha): 9.0
herbicidal rating, MOOVA ([5]; rate 0.1250 kg/ha): 9.0
herbicide rating (0-9) ORYSAT (rice tolerance) (ORYSAT (Rice, Tebonnet) [6]; 0.0320 kg/ha into flood water): 4.0
herbicide rating (0-9) ORYSAT (rice tolerance) (ORYSAT (Rice, Tebonnet) [6]; 0.0620 kg/ha into flood water): 6.0
herbicide rating (0-9) ORYSAT (rice tolerance) (ORYSAT (Rice, Tebonnet) [6]; 0.1250 kg/ha into flood water): 7.0
SETVI herbicidal rating (SETVI (Setaria viridis) [7]; rate 0.0320 kg/ha): 9.0
SETVI herbicidal rating (SETVI (Setaria viridis) [7]; rate 0.0620 kg/ha): 9.0
SETVI herbicidal rating (SETVI (Setaria viridis) [7]; rate 0.1250 kg/ha): 9.0
herbicide rating (0-9) SAGPY ([8]; 0.0320 kg/ha into flood water): 0.0
herbicide rating (0-9) SAGPY ([8]; 0.0620 kg/ha into flood water): 0.0
herbicide rating (0-9) SAGPY ([8]; 0.1250 kg/ha into flood water): 4.0
Preemergence herbicidal rating ECHCG ([9]; Rate 0.0620 kg/ha): 7.5
Preemergence herbicidal rating ECHCG ([9]; Rate 0.1250 kg/ha): 8.5
Preemergence herbicidal rating ECHCG ([9]; Rate 0.2500 kg/ha): 9.0
Preemergence herbicidal rating SETVI (SETVI (Setaria viridis) [10]; Rate 0.0620 kg/ha): 9.0
Preemergence herbicidal rating SETVI (SETVI (Setaria viridis) [10]; Rate 0.1250 kg/ha): 9.0
Preemergence herbicidal rating SETVI (SETVI (Setaria viridis) [10]; Rate 0.2500 kg/ha): 9.0
TRZAWR herbicidal rating ([11]; rate 0.0320 kg/ha): 4.0
TRZAWR herbicidal rating ([11]; rate 0.0620 kg/ha): 4.0
TRZAWR herbicidal rating ([11]; rate 0.1250 kg/ha): 5.0
Preemergence herbicidal rating ABUTH ([12]; Rate 0.0620 kg/ha): 9.0
Preemergence herbicidal rating ABUTH ([12]; Rate 0.1250 kg/ha): 8.5
Preemergence herbicidal rating ABUTH ([12]; Rate 0.2500 kg/ha): 9.0
herbicidal rating, ORYSAT (rice tolerance) (ORYSAT (Rice, Tebonnet) [13]; rate 0.0080 kg/ha): 1.0
herbicidal rating, ORYSAT (rice tolerance) (ORYSAT (Rice, Tebonnet) [13]; rate 0.0320 kg/ha): 3.7
herbicidal rating, ORYSAT (rice tolerance) (ORYSAT (Rice, Tebonnet) [13]; rate 0.1250 kg/ha): 5.7

Cn1c(C(F)(F)F)cc(=O)n(-c2ccc3snc(-c4ncccn4)c3c2)c1=O [Compound 12, 1-methyl-3-[3-(2-pyrimidinyl)-1,2-benzisothiazol-5-yl]-6-(trifluoromethyl)uracil]
Postemergence herbicidal rating, ORYSAT (ORYSAT (Rice, Tebonnet) [1]; rate 0.0620 kg/ha): 6.0
herbicide rating (0-9) CYPIR (CYPIR (Cyperus iria)): 9.0
herbicide rating (0-9) MOOVA ([2]; 0.1250 kg/ha into flood water): 2.0
herbicide rating (0-9) ECHORC ([3]; 0.1250 kg/ha into flood water): 1.0
herbicide rating (0-9) CYPSE ([4]; 0.1250 kg/ha into flood water): 0.0
herbicidal rating, MOOVA ([5]; rate 0.1250 kg/ha): 9.0
herbicide rating (0-9) ORYSAT (rice tolerance) (ORYSAT (Rice, Tebonnet) [6]; 0.1250 kg/ha into flood water): 2.0
Postemergence herbicidal rating, SETVI (SETVI (Setaria viridis) [7]; rate 0.0620 kg/ha): 9.0
herbicide rating (0-9) SAGPY ([8]; 0.1250 kg/ha into flood water): 0.0
ECHCG preemergence herbicidal rating [9, 14]: 9.0
SETVI preemergence herbicidal rating (SETVI (Setaria viridis) [10]; [14]): 9.0
Postemergence herbicidal rating, TRZAWR ([11]; rate 0.0620 kg/ha): 6.0
ABUTH preemergence herbicidal rating [12, 14]: 9.0
herbicidal rating, ORYSAT (rice tolerance) (ORYSAT (Rice, Tebonnet) [13]; rate 0.1250 kg/ha): 7.0
